Reference: patent US20120232044A1, “METHODS AND COMPOSITIONS FOR TREATING HYPERURICEMIA AND METABOLIC DISORDERS ASSOCIATED WITH HYPERURICEMIA” (TWi Biotechnology, Inc., priority 2011, published 2012)

Experiments:
[1] = system: subjects with chronic gout and hyperuricemia; test: Case study of diacerein and allopurinol combination therapy in subjects with chronic gout and hyperuricemia; format: in vivo, human; details: for blood level of uric acid: visit 1 before diacerein
Description: In DIA-DM01 trial described in Example 1, two subjects enrolled in the diacerein group had chronic gout history and were currently treating with allopurinol.
Case 1: A person with history of chronic gout and hyperuricemia was treated with allopurinol since Jan. 2, 2009. Before they were enrolled in the diacerein trial, their medical treatment was unsatisfactory, and their blood level of uric acid was 8.3 mg/dL in visit 1 (Jul. 8, 2009).
Case 2: A person with history of chronic gout and hyperuricemia was treated with allopurinol since Aug. 27, 2009. Before they were enrolled in the diacerein trial, their medical treatment was also unsatisfactory, and their blood level of uric acid was 9.5 mg/dL in visit 1 (Dec. 18, 2009).

[2] = system: type 2 diabetes patients with micro-albuminuria, hyperuricemia sub-group (baseline blood uric acid higher than 7.0 mg/dL); test: DIA-DM01 trial, hyperuricemia sub-group: blood uric acid level under diacerein 50 mg bid versus placebo; format: in vivo, human; details: for patients whose blood uric acid levels achieved normal range: normal: females below 6.0 mg/dL, males below 7.0 mg/dL
Source text: Objectives: To evaluate the efficacy and safety of diacerein for the treatment of albuminuria in patients with type 2 diabetes mellitus.
Primary Endpoints: To compare the change from baseline in the urinary albumin to creatinine ratio (UACR) after 24 weeks of diacerein or placebo administrated.
Subjects: Male or female type 2 diabetes patients (BMI≦35 kg/m^2) with micro-albuminuria.
Procedure: This was a Phase II, prospective, randomized, double-blind, and parallel comparison study comparing diacerein 50 mg bid (twice a day) versus placebo to albuminuria in patients with type 2 diabetes mellitus.
At the screening visit, patients who fulfilled the enrollment criteria and gave written informed consent entered a three to ten days screening period. During the screening period, the baseline UACR was evaluated. If the baseline UACR was greater than 50 mg/g, the patients were randomized into the […] treatment period in the 1:1 ratio (diacerein versus placebo). All participants were required to be taking stable dose of angiotensin-converting-enzyme (ACE) inhibitors, angiotensin receptor blockers (ARBs), or both, for three months prior to the study. These agents were continued throughout the trial. The hypoglycemic medications were maintained during the study period. The class and/or dosage were changed if clinically indicated. An introduction of a new treatment or any regimen change to the pre-existing co-medication that had hypoglycemic or hyperglycemic potential was allowed during the study with the consent of the clinical investigator.
The hyperuricemia sub-group was assembled from among the subjects with baseline blood uric acid level higher than 7.0 mg/dL. The results of blood uric acid level in the two treatment groups were analyzed by paired t-test of within-group changes.
Subjects (n=76) with diabetic microalbinuria were randomized in a 1:1 ratio to receive twice-daily diacerein 50 mg (n=38), or placebo (n=38) for 24 weeks. The baseline blood levels of uric acid in nine subjects of the diacerein group (2 females and 7 males) and twelve subjects of the placebo group (2 females and 10 males) in the hyperuricemia subgroup were above 7.0 mg/dL, and the mean levels were 8.06 mg/dL and 8.38 mg/dL respectively.

| Structure (SMILES) | blood level of uric acid ([1]; Case 1, on allopurinol alone) | blood level of uric acid ([1]; Case 2, on allopurinol alone) | blood uric acid level ([1]; Case 1, after 24 weeks of diacerein add-on to allopurinol) | acute flares during the treatment period ([1]; Case 1, diacerein add-on to allopurinol, 24 weeks) | blood uric acid level ([1]; Case 2, after 12 weeks of diacerein add-on to allopurinol) | patients whose blood uric acid levels achieved normal range ([2]; 24-week treatment with diacerein) | Uric Acid, Mean ([2]; Baseline (before treatment), diacerein group, N=9) | Uric Acid, Mean ([2]; Baseline (before treatment), diacerein group, N=9, listed as Diacerein) | patients whose blood uric acid levels achieved normal range ([2]; after 12 weeks of diacerein) | blood uric acid levels maintained during the treatment period ([2]; diacerein 50 mg bid, below the upper end of the normal range) | Uric Acid, Mean ([2]; week 12, diacerein 50 mg bid, N=9) | Uric Acid, Change from baseline ([2]; week 12, diacerein 50 mg bid, N=9, p=0.0037 vs. baseline) | Uric Acid, Mean ([2]; week 24, diacerein 50 mg bid, N=7) | Uric Acid, Change from baseline ([2]; week 24, diacerein 50 mg bid, N=7, p=0.0060 vs. baseline) |
| --- | --- | --- | --- | --- | --- | --- | --- | --- | --- | --- | --- | --- | --- | --- |
| Oc1ncnc2[nH]ncc12 [allopurinol] | 8.3 mg/dL | 9.5 mg/dL | – | – | – | – | – | – | – | – | – | – | – | – |
| CC(=O)Oc1cccc2c1C(=O)c1c(OC(C)=O)cc(C(=O)O)cc1C2=O [diacerein, 4,5-bis(acetyloxy)-9,10-dioxo-2-anthracene carboxylic acid] | – | – | 7.5 mg/dL | No acute flares were observed | 6.4 mg/dL | four of the remaining seven patients | 8.06 mg/dL | 8.0667 mg/dL | six of the nine patients | below 7.0 mg/dL | 6.6667 mg/dL | -1.40 mg/dL | 6.5571 mg/dL | -1.34 mg/dL |
